How the values were obtained:
[1] = target: T1, Thyroid hormone receptor alpha (Homo sapiens, UniProt P10827); assay: Binding affinity of compound was determined against Thyroid hormone receptor alpha1
T1 sequence (P10827 whole entry): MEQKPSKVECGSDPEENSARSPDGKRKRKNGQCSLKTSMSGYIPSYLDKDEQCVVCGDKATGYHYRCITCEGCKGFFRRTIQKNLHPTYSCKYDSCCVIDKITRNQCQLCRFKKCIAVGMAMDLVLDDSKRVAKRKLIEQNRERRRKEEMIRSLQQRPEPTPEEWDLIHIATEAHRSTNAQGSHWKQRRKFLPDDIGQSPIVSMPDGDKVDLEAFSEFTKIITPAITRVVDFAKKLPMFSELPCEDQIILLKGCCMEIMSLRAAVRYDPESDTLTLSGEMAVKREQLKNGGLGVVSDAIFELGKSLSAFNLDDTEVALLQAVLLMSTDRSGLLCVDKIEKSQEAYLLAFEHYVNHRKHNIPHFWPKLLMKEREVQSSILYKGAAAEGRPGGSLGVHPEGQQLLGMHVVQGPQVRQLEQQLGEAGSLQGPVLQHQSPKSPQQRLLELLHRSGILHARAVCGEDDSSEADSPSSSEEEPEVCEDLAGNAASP

[2] = target: T2, Thyroid hormone receptor beta (Homo sapiens, UniProt P10828); assay: Binding affinity of compound was determined against thyroid hormone receptor beta 1
T2 sequence (P10828 whole entry): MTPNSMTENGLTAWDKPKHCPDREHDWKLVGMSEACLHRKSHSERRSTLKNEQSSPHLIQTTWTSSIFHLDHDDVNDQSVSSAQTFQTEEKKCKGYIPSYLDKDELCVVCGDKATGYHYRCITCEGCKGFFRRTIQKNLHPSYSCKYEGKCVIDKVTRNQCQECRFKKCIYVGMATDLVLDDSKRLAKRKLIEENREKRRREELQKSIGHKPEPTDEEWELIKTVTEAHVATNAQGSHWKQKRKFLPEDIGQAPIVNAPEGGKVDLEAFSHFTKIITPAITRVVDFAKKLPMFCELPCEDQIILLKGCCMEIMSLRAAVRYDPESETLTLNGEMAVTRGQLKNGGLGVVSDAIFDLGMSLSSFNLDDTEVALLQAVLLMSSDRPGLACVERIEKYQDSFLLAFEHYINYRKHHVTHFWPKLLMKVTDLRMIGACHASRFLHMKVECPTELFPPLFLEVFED

| Kd [1] | Kd [2] | SMILES |
| --- | --- | --- |
| 8.5 nM | 6.2 nM | Cc1cc(C[C@H](N)C(=O)O)cc(C)c1Oc1ccc(O)c(C(C)C)c1 |
| 2.02 nM | 1.26 nM | Cc1cc(C[C@H](N)C(=O)O)cc(C)c1Cc1ccc(O)c(C(C)C)c1 |
| 2.4 nM | 0.36 nM | Cc1cc(OCC(=O)O)cc(C)c1Oc1ccc(O)c(C(C)C)c1 |

| SMILES | Kd [1] | Kd [2] |
| --- | --- | --- |
| Cc1cc(CCC(=O)O)cc(C)c1Cc1ccc(O)c(C(C)C)c1 | 0.69 nM | 0.22 nM |
